Assay results taken from patent US20200268864A1, “CANCER VACCINE COMPOSITIONS AND METHODS FOR USING SAME TO TREAT CANCER” (Dana-Farber Cancer Institute, Inc., priority 2017, published 2020).
“Also recorded” adds a separate entry of the source.

Assays:
[1] = system: STING pathway in PPM tumors; test: STING pathway activation in PPM tumors; settings: mouse, in vivo
Description: (§1) Tumors were first mechanically disrupted by chopping, then chemically digested in collagenase buffer (8 mL DMEM, 0.1 mL 1M HEPES, 0.5 mL FBS, 0.2 mL Pen/Strep, 1 m, 10× collagenase/hyaluronidase (Stemcell Technologies), 0.2 mL of 1 mg/mL DNase I (Stemcell Technologies) at 37° C. for 45 min. Single-cell suspensions of spleen and lymph nodes were obtained by mashed through a 70 um strainer using the plunger of a 3 mL or 5 mL syringe. Single cells suspensions were treated with red blood lysis buffer (4 mL NH4Cl+1 mL PBS with 2% calf serum) and washed with FACS buffer. Single cells suspensions were incubated with LIVE/DEAD Fixable Aqua Dead Cell Stain (Life Technologies, Cat # L34965) for 30 min and then blocked with anti-CD16/32 (BioLegend, clone 93) for 20 min on ice. Samples were then incubated with appropriate antibodies for 30 min. on ice. The Foxp3 staining buffer set (eBioscience, Cat #00-5523-00) was applied for intracellular markers staining. For the intracellular cytokine analysis, cells were stimulated with Leukocyte Activation Cocktail (BD Biosciences, Cat #550583) at 37° C. for 5 hours prior to FACS staining. […] Flow cytometry was performed on an LSR II (BD Biosciences) or LSRFortessa™ HTS (BD Biosciences) at the DFCI flow cytometry core facility, and all the data were analyzed using FlowJo software. […]

Brca1-null ID8 tumors = test: Subcutaneous Brca1-null ID8 tumors in WT or STING-KO mice; type: in vivo, mouse
Description: Single cells were obtained by digestion of primary ovarian tumors in collagenase buffer and then cultured in MOT media (DMEM/F12, 0.6% FBS, 10 ng/ml EGF, hydrocortisone 1 μg/ml, cholera toxin 1 ng/ml, 100 μg/ml penicillin-streptomycin, 5 μM Y27632). Tumor cells were transduced with lentiviral vector encoding luciferase (pLenti-blasticidin-luciferase) and then subjected to 3 days antibiotic selection with blasticidin 2 μg/ml. These luciferased tumors were transplanted orthotopically into syngeneic FVB/NJ mice to generated tumors for drug evaluation. Olaparib (AZD2281) was used by diluting 100 mg/ml stocks in DMSO with 10% 2-hydroxyl-propyl-β-cyclodextrine/PBS and administered daily by i.p. injection at dose of 50 mg/kg body weight. Mouse anti-PD-1 monoclonal antibody kindly provided by Gordon Freeman at DFCI was diluted in PBS (250 μg/100 μl/mouse) and injected by i.p. every 3 days. BX795 (Cat # HY-10514/CS-0259, MedChem Express) was prepared in DMSO (100 mg/ml) as stock solution and diluted in (25% PEG400+0.5% Tween)/PBS and administered daily by i.p. injection at dose of 30 mg/kg body weight. Anti-IFNAR1 antibody (Cat # BE0241; clone, MAR1-5A3; InVivoMab) was diluted in PBS (200 μg/100 μl/mouse) and injected by i.p. every 3 days. Tumor-bearing mice were equivalently divided into control and treatment groups according to the luminescent intensity. The endpoints were determined by tumor burden and ascites. For the CD8 depletion experiment, mice were injected intraperitoneally with anti-CD8 antibody (400 μg; clone YTS 169.4, BioXcell) 24 and 48 h before beginning olaparib treatment (50 mg/kg/day) and every 4 days thereafter.
Brca-1 deficient ID8 cells were generated using a CRISPR double nickase plasmid. […] Due to a lack of a reliable mouse BRCA1 antibody for Western blot, cells were analyzed by DNA sequencing to confirm the disruption of functional Brca1 allele. […]

PD-L1 on PBM tumor cells = test: PD-L1 expression on PBM tumor cells (RT-qPCR, flow cytometry); parameters: species or system mouse; settings: PBM tumors in vivo and cultured PBM cells
Description: as §1

## O=C(c1cc(Cc2n[nH]c(=O)c3ccccc23)ccc1F)N1CCN(C(=O)C2CC2)CC1 [olaparib, Olaparib]
[1]
  hallmarks of STING pathway activation in PPM tumors: not observed
Brca1-null ID8 tumors; STING-KO hosts
  tumor growth (tumor weights): little effect
Brca1-null ID8 tumors; WT host
  abundance of intratumoral p-TBK1+ DCs: increased abundance
Brca1-null ID8 tumors; WT mice
  tumor growth (tumor weights): significantly inhibited the tumor growth
PD-L1 on PBM tumor cells
  expression of immune-inhibitory ligand PD-L1 on tumor cells: highly enhanced expression; also recorded: significantly increased expression
